What was measured:
Assay in all cases: Kinase panel (Dundee profiling)
Type in all cases: biochemical
Conditions in all cases: read-out: % residual kinase activity
WNK1 = WNK1 (Homo sapiens, UniProt Q9H4A3)
Summary of the method: (§1)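 Radioisotopic enzymatic activity assay across a panel of 140 recombinant kinases, with test compound at 10 and 1 μM. Values are % residual kinase activity relative to DMSO control, mean±SEM, n=3.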

HER4 = HER4 (Homo sapiens, UniProt Q15303)
Summary of the method: as §1

MST4 = MST4 (Homo sapiens, UniProt Q9P289)
Summary of the method: as §1

HIPK2 = HIPK2 (Homo sapiens, UniProt Q9H2X6)
Summary of the method: as §1

Aurora A = Aurora A (Homo sapiens, UniProt O14965)
Summary of the method: as §1

PKA = PKA (Homo sapiens, UniProt P17612)
Summary of the method: as §1

EPH-A4 = EPH-A4 (Homo sapiens, UniProt P54764)
Summary of the method: as §1

RIPK2 = RIPK2 (Homo sapiens, UniProt O43353)
Chain of RIPK2 (O43353 whole entry, species assumed): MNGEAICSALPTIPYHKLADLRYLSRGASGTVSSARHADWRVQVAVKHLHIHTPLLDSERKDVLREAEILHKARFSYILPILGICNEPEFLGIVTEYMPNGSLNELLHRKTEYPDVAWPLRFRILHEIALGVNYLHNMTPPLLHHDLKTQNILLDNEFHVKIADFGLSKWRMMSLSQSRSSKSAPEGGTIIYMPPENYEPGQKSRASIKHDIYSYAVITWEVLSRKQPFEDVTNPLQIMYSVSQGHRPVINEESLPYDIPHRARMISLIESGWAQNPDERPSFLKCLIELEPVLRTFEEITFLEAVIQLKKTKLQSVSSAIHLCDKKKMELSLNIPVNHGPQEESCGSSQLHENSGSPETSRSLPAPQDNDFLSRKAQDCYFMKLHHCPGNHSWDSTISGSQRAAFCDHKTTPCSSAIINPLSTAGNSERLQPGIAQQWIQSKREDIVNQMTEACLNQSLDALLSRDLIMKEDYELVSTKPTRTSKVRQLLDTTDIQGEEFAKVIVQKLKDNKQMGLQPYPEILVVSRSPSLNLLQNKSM
Summary of the method: as §1

MARK2 = MARK2 (Homo sapiens, UniProt Q7KZI7)
Summary of the method: as §1

BRK = BRK (Homo sapiens, UniProt Q13882)
Summary of the method: as §1

CK2 = CK2 (Homo sapiens, UniProt P68400)
Summary of the method: as §1

DAPK1 = DAPK1 (Homo sapiens, UniProt P53355)
Summary of the method: as §1

IKKe = IKKe (Homo sapiens, UniProt Q14164)
Summary of the method: as §1

ULK1 = ULK1 (Homo sapiens, UniProt O75385)
Chain of ULK1 (O75385 whole entry, species assumed): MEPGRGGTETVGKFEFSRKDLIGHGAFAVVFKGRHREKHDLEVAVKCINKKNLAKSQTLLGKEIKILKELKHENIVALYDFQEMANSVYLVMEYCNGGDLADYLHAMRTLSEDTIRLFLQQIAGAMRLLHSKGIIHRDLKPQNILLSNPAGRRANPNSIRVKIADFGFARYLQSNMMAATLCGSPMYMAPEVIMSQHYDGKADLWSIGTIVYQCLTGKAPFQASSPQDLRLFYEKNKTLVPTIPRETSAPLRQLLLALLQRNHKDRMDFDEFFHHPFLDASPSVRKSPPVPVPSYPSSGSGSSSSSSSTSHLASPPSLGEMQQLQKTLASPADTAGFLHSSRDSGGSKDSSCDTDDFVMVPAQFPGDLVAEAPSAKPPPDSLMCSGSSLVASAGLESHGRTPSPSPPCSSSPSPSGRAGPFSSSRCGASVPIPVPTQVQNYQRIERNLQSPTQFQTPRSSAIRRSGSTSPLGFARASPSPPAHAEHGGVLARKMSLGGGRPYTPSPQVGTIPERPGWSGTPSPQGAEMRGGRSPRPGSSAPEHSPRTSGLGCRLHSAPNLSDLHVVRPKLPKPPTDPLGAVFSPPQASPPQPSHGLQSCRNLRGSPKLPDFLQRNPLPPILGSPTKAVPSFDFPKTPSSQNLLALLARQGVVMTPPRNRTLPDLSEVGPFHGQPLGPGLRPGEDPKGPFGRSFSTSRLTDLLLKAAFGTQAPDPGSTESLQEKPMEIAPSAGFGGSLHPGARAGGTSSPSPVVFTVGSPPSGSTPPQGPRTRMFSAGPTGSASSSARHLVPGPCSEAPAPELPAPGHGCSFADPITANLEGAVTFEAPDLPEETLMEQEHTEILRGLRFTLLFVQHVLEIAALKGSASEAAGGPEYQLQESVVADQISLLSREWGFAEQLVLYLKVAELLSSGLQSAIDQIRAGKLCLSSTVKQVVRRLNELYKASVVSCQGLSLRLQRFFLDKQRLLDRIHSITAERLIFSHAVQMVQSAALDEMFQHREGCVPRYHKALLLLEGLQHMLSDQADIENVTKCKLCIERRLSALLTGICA
Summary of the method: as §1

Src = Src (Homo sapiens, UniProt P12931)
Summary of the method: as §1

LKB1 = LKB1 (Homo sapiens, UniProt Q15831)
Summary of the method: as §1

SIK3 = SIK3 (Homo sapiens, UniProt Q9Y2K2)
Summary of the method: as §1

BTK = BTK (Homo sapiens, UniProt Q06187)
Chain of BTK (Q06187 whole entry, species assumed): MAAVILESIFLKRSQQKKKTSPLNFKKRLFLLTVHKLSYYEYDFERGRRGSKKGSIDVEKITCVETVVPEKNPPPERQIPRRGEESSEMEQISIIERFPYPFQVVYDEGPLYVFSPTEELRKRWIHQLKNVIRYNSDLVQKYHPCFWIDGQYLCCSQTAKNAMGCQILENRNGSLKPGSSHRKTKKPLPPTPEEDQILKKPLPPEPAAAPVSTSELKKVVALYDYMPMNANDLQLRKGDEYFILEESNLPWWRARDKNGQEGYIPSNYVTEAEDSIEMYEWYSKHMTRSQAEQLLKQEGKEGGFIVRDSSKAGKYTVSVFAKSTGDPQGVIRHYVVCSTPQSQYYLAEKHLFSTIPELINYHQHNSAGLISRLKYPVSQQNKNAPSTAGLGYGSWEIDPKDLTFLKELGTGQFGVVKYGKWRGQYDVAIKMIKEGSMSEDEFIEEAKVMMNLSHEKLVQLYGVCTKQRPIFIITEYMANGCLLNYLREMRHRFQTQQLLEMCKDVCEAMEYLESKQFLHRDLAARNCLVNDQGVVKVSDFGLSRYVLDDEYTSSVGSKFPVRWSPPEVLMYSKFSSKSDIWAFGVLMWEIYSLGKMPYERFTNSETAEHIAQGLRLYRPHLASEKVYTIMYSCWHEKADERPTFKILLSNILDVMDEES
Summary of the method: as §1

TTK = TTK (Homo sapiens, UniProt P33981)
Summary of the method: as §1

MSK1 = MSK1 (Homo sapiens, UniProt O75582)
Summary of the method: as §1

ERK1 = ERK1 (Homo sapiens, UniProt P27361)
Summary of the method: as §1

PRK2 = PRK2 (Homo sapiens, UniProt Q16513)
Summary of the method: as §1

JNK2 = JNK2 (Homo sapiens, UniProt P45984)
Summary of the method: as §1

TIE2 = TIE2 (Homo sapiens, UniProt Q02763)
Summary of the method: as §1

EF2K = EF2K (Homo sapiens, UniProt O00418)
Summary of the method: as §1

IKKb = IKKb (Homo sapiens, UniProt O14920)
Summary of the method: as §1

Lck = Lck (Homo sapiens, UniProt P06239)
Summary of the method: as §1

DYRK3 = DYRK3 (Homo sapiens, UniProt O43781)
Chain of DYRK3 (O43781 whole entry, species assumed): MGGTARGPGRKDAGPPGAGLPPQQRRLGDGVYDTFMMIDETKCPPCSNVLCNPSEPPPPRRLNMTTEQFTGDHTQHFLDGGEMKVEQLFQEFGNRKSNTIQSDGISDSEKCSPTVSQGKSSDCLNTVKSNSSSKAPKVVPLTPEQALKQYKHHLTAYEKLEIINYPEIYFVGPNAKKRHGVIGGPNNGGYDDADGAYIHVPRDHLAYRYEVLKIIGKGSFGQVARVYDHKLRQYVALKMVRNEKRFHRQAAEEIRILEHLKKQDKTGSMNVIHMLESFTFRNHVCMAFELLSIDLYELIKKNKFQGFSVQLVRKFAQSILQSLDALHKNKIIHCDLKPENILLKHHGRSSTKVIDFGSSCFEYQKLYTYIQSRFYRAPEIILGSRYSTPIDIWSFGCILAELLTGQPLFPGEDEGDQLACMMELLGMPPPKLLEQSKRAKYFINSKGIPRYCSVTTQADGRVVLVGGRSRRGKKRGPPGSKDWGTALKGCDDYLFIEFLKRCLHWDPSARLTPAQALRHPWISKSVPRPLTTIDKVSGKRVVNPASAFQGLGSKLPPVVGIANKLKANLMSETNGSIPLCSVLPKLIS
Summary of the method: as §1

RSK2 = RSK2 (Homo sapiens, UniProt P51812)
Summary of the method: as §1

VEG-FR = VEG-FR (Homo sapiens, UniProt P17948)
Summary of the method: as §1

BRSK1 = BRSK1 (Homo sapiens, UniProt Q8TDC3)
Chain of BRSK1 (Q8TDC3 whole entry, species assumed): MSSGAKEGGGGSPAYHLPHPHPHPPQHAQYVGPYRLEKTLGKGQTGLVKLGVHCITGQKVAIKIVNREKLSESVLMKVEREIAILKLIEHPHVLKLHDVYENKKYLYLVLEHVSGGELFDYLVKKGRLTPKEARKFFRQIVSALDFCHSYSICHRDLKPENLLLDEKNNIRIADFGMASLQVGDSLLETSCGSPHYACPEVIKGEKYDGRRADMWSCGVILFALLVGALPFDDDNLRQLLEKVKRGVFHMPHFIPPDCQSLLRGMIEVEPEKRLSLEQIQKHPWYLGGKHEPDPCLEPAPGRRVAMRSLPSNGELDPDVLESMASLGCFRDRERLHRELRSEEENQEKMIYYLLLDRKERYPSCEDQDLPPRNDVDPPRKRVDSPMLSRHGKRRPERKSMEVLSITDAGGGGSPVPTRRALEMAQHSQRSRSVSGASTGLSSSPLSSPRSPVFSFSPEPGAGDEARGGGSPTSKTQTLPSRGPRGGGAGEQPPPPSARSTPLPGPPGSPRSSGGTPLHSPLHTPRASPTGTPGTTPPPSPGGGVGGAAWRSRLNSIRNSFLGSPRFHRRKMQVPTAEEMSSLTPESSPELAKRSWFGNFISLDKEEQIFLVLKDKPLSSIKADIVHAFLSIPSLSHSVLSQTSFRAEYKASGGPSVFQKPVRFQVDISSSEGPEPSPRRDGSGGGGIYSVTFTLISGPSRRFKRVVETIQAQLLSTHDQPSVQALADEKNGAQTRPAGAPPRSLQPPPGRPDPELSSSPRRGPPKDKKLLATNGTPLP
Summary of the method: as §1

MST2 = MST2 (Homo sapiens, UniProt Q13188)
Summary of the method: as §1

Chain of HER4 (Q15303 26-1308, species assumed): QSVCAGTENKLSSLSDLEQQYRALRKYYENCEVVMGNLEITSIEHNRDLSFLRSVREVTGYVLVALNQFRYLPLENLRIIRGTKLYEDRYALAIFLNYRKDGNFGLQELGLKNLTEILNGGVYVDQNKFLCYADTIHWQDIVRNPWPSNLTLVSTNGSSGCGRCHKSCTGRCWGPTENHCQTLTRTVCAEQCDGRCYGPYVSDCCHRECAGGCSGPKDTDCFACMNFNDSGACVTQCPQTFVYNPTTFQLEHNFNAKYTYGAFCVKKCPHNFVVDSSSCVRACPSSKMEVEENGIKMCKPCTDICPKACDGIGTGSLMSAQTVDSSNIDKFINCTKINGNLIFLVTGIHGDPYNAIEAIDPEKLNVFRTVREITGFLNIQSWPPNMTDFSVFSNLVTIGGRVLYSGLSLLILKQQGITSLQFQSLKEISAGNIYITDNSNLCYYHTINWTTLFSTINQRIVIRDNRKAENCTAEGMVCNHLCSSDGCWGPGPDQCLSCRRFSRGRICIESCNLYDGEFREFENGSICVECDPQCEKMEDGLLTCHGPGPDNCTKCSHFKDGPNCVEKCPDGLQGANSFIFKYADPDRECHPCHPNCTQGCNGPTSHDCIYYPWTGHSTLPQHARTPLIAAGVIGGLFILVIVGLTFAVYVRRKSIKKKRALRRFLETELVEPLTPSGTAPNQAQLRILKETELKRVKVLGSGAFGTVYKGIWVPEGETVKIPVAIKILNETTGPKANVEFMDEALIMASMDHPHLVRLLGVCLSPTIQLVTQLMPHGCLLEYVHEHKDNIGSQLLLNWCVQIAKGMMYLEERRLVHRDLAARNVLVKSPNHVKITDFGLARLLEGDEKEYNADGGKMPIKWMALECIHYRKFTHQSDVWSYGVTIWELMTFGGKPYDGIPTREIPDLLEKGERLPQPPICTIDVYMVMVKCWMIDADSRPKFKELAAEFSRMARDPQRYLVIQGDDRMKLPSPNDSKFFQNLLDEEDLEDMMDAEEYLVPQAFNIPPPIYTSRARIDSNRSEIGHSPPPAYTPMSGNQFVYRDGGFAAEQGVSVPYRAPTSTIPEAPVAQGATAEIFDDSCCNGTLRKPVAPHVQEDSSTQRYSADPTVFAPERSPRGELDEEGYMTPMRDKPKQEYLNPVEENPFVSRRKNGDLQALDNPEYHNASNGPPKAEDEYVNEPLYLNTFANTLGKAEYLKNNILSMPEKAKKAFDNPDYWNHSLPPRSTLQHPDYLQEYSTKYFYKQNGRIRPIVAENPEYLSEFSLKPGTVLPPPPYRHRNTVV

For Cc1cc(C(C#N)c2ccc(Cl)cc2)c(Cl)cc1NC(=O)c1cc(Cl)ccc1O (stereo not shown) [ZT-1a, 5-chloro-N-(5-chloro-4-((4-chlorophenyl)(cyano)methyl)-2-methylphenyl)-2-hydroxy-benzamide], the remaining activity at 1 µM (WNK1; 1 μM) was 125 ± 17%, the remaining activity at 10 µM (WNK1; 10 μM) was 122 ± 35% and the remaining activity at 1 µM (HER4; 1 μM) was 85 ± 8%. The remaining activity at 10 µM (HER4; 10 μM) was 84 ± 1%, the remaining activity at 1 µM (MST4; 1 μM) was 63 ± 10% and the remaining activity at 10 µM (MST4; 10 μM) was 63%. The remaining activity at 1 µM (HIPK2; 1 μM) was 90 ± 14%, the remaining activity at 10 µM (HIPK2; 10 μM) was 91 ± 4% and the remaining activity at 1 µM (Aurora A; 1 μM) was 73 ± 19%. For the same compound, the remaining activity at 10 µM (Aurora A; 10 μM) was 65 ± 1%, the remaining activity at 1 µM (PKA; 1 μM) was 80 ± 11% and the remaining activity at 10 µM (PKA; 10 μM) was 50 ± 2%. For the same compound, the remaining activity at 1 µM (EPH-A4; 1 μM) was 59 ± 33%, the remaining activity at 10 µM (EPH-A4; 10 μM) was 90 ± 11% and the remaining activity at 1 µM (RIPK2; 1 μM) was 128 ± 5%. For the same compound, the remaining activity at 10 µM (RIPK2; 10 μM) was 120 ± 3%, the remaining activity at 1 µM (MARK2; 1 μM) was 103 ± 8% and the remaining activity at 10 µM (MARK2; 10 μM) was 89 ± 15%. For the same compound, the remaining activity at 1 µM (BRK; 1 μM) was 116 ± 12%, the remaining activity at 10 µM (BRK; 10 μM) was 103 ± 2% and the remaining activity at 1 µM (CK2; 1 μM) was 72 ± 15%. It also gave a remaining activity at 10 µM (CK2; 10 μM) of 59 ± 16%, a remaining activity at 1 µM (DAPK1; 1 μM) of 131 ± 8% and a remaining activity at 10 µM (DAPK1; 10 μM) of 159 ± 11%. For the same compound, the remaining activity at 1 µM (IKKe; 1 μM) was 87 ± 13%, the remaining activity at 10 µM (IKKe; 10 μM) was 59 ± 5% and the remaining activity at 1 µM (ULK1; 1 μM) was 87 ± 10%. It also gave a remaining activity at 10 µM (ULK1; 10 μM) of 89 ± 13%, a remaining activity at 1 µM (Src; 1 μM) of 107 ± 4% and a remaining activity at 10 µM (Src; 10 μM) of 84 ± 13%. For the same compound, the remaining activity at 1 µM (LKB1; 1 μM) was 107 ± 8%, the remaining activity at 10 µM (LKB1; 10 μM) was 115 ± 11% and the remaining activity at 1 µM (SIK3; 1 μM) was 104 ± 9%. For the same compound, the remaining activity at 10 µM (SIK3; 10 μM) was 88%, the remaining activity at 1 µM (BTK; 1 μM) was 113 ± 1% and the remaining activity at 10 µM (BTK; 10 μM) was 73 ± 2%. For the same compound, the remaining activity at 1 µM (TTK; 1 μM) was 104 ± 2%, the remaining activity at 10 µM (TTK; 10 μM) was 91 ± 5% and the remaining activity at 1 µM (MSK1; 1 μM) was 114 ± 6%. For the same compound, the remaining activity at 10 µM (MSK1; 10 μM) was 112 ± 14%, the remaining activity at 1 µM (ERK1; 1 μM) was 107 ± 16% and the remaining activity at 10 µM (ERK1; 10 μM) was 109 ± 18%. The remaining activity at 1 µM (PRK2; 1 μM) was 118 ± 4%, the remaining activity at 10 µM (PRK2; 10 μM) was 120 ± 7% and the remaining activity at 1 µM (JNK2; 1 μM) was 102 ± 2%. The remaining activity at 10 µM (JNK2; 10 μM) was 147 ± 51%, the remaining activity at 1 µM (TIE2; 1 μM) was 139 ± 74% and the remaining activity at 10 µM (TIE2; 10 μM) was 73 ± 11%. For the same compound, the remaining activity at 1 µM (EF2K; 1 μM) was 104 ± 13%, the remaining activity at 10 µM (EF2K; 10 μM) was 56 ± 2% and the remaining activity at 1 µM (IKKb; 1 μM) was 101%. The remaining activity at 10 µM (IKKb; 10 μM) was 78 ± 3%, the remaining activity at 1 µM (Lck; 1 μM) was 112 ± 13% and the remaining activity at 10 µM (Lck; 10 μM) was 127 ± 14%. The remaining activity at 1 µM (DYRK3; 1 μM) was 113 ± 6%, the remaining activity at 10 µM (DYRK3; 10 μM) was 56 ± 15% and the remaining activity at 1 µM (RSK2; 1 μM) was 116 ± 5%. The remaining activity at 10 µM (RSK2; 10 μM) was 101 ± 3%, the remaining activity at 1 µM (VEG-FR; 1 μM) was 113 ± 10% and the remaining activity at 10 µM (VEG-FR; 10 μM) was 88 ± 28%. The remaining activity at 1 µM (BRSK1; 1 μM) was 108 ± 14%, the remaining activity at 10 µM (BRSK1; 10 μM) was 88 ± 22% and the remaining activity at 1 µM (MST2; 1 μM) was 115 ± 4%. The remaining activity at 10 µM (MST2; 10 μM) was 113 ± 2%.
